Test results reported in US20130287918A1, “MICROBICIDAL COMPOSITION” (DUPONT NUTRITION DIOSCIENCES APS, priority 2010, published 2013).

Assays:
[1] = test system: pool of 4 yeast species (Candida tropicalis DCS 604, Zygosaccharomyces bailii DCS 1167 and DCS 1172, Pichia spp DCS 1175); assay: BBQ sauce challenge study, yeast count on YGC agar; format: cell-based; conditions: for Cell counts on YGC-agar (yeast growth): BBQ sauce 20° C., Potassium Sorbate 0.1%
Method: Samples of the BBQ sauce (formula in table 9) with and without the experimental blend were produced in the Danisco Culinary Application Laboratory, Brabrand.
Each batch was split (scheme table 8) in probes of 90 gram and placed in sterile jars. 42 probes of each batch were inoculated with the desired level of yeast and 5 probes of each batch were inoculated with mould spores, respectively at a targeted inoculation rate of 500 to 1000 CFU/g.
(§1) The viscous products were thoroughly mixed (2 minutes) within 10 minutes of inoculation to ensure that the inoculum was evenly distributed throughout the product. One sample remained un-inoculated and was used as negative control to monitor the native contamination flora. All samples were incubated at ambient temperature (20° C.) and assayed for yeast, plated on an appropriate yeast medium, until confirmed failure (≧1.0E+06 CFU/g) or until visible mould growth, respectively. In parallel, the growth of lactic acid bacteria and total cell count were monitored on MRS and PCA in all the batches and the non-inoculated blind, respectively.
In total 8 strains, from available from Danisco's Culture Collection (DCS) (Danisco A/S, Brabrand, Denmark) were employed as one yeast and one mould pool in the respective BBQ sauce. Originally, they were isolated e.g. from spoiled ketchup, mayonnaise. Salsa dressing or obtained from official culture collections such as DMSZ.
(§2) Before each experiment, a stock culture of each yeast, maintained at −86° C. in suitable broth containing glycerol 50% (v/v), was propagated through two consecutive growth cycles in suitable media (YGC-agar (VWR) pH 5.1+0.2; YM Broth (Becton, Dickinson and company) at pH 6.0±0.2 at and temperature (25° C.). The overnight cultures are diluted in saline solution to obtain working cultures. A cocktail of the yeasts was generated by adding equal cell counts of each culture into a sterile container and mixed appropriately. The yeast cocktail was diluted and inoculated into the product in order to achieve the final desired concentration. Pool counts were verified via plate count.
The BBQ sauces were assayed at time zero, day 2, day 5, day 12, weekly until week 10 (day 68) and bi-weekly thereafter until week 19 (day 131). CFU/g was detected for 3 samples from each batch inoculated with yeast. Before each sampling (closed jar), the sample was thoroughly mixed. 10 gram sample were aseptically pulled from each jar and diluted with peptone water. Each sample was stomached (1 min, normal setting) plated in duplicate onto YGC agar (VWR) and MRS (VWR), and incubated at 25° C. for 5 days and 37° C. for 3 days, respectively.

[2] = test system: pool of 4 yeast species (Candida tropicalis DCS 604, Zygosaccharomyces bailii DCS 1167 and DCS 1172, Pichia spp DCS 1175); assay: Salsa sauce fresh challenge study, yeast count on YGC agar; format: cell-based; conditions: Salsa sauce 4° C., FP1000-D1 1%, FP1000-D2 1%, MG200 1%, Potassium Sorbate 0.1%
Excerpt: Samples of the Salsa sauce (formula in table 17) with and without the experimental blend were produced. […] It needs to be mentioned that the Salsa sauce was not pasteurized.
Each batch was split (scheme table 15) in probes of 90 gram and placed in sterile jars. 21 probes of each batch were inoculated with the desired level of yeast and 5 probes of each batch were inoculated with mould spores, respectively at a targeted inoculation rate of 300 to 800 CFU/g.
as §1, with “incubated in the dark” for “incubated”, “chilled” for “ambient”, “(4°” for “(20°”
In total 8 strains, available from Danisco's Culture Collection (DCS) (Danisco A/S, Brabrand, Denmark) were employed as 1 yeast and 1 mould pool in the respective Salsa sauce. Originally, they were isolated e.g. from spoiled ketchup, mayonnaise. Salsa dressing or obtained from official culture collections such as DMSZ.
as §2, with “Company)” for “company)”
(§3) The Salsa sauces were assayed at time zero, day 3, day 7, day 14 and were plated bi-weekly thereafter until day 92. CFU/g was detected for 3 samples from each batch inoculated with yeast. Before each sampling (closed jar), the sample was thoroughly mixed, 10 gram sample were aseptically pulled from each jar and diluted with peptone water. Each sample was stomached (1 min, normal setting) plated in duplicate onto YGC agar (VWR) and MRS (VWR), and incubated at 25° C. for 5 days and 37° C. for 3 days, respectively.

[3] = test system: native flora of Lactic acid bacteria; assay: Salsa sauce fresh challenge study, native lactic acid bacteria on MRS-agar; format: cell-based; conditions: for Cell counts on MRS-agar (native Lactic acid bacteria): Salsa sauce 4° C., FP1000-D1 1%, FP1000-D2 1%, MG200 1%, Potassium Sorbate 0.1%
Method: as §1, with “incubated in the dark” for “incubated”, “chilled” for “ambient”, “(4°” for “(20°”
as §3

[4] = Ranch dressing challenge study, pH measurement; format: physicochemical; conditions: 0.1%, non-inoculated sample
Excerpt: A pH measurement of non-inoculated sample material took place at every sampling date using a Mettler Toledo Seven Easy pH meter.

Q: Which “initial reduction of the inoculated cell load” value ([1]; BBQ sauce, YM10 1% and 0.5%, potassium sorbate) does the source give for `C/C=C/C=C/C(=O)[O-].[K+]` [Potassium Sorbate, potassium sorbate] here?
A: 3 log

Q: What about the “Cell counts on YGC-agar (yeast growth)” value ([1]; day 0, YM10 1%, MG200 1%, Competitor product 1.25%) of the same compound?
A: 6.07E+02 CFU/g

Q: What about the “Cell counts on YGC-agar (yeast growth)” value ([1]; day 2, YM10 1%, MG200 1%, Competitor product 1.25%) of the same compound?
A: 1.47E+02 CFU/g

Q: And the “Cell counts on YGC-agar (yeast growth)” value ([1]; day 5, YM10 1%, MG200 1%, Competitor product 1.25%)?
A: 2.50E+01 CFU/g

Q: What about the “Cell counts on YGC-agar (yeast growth)” value ([1]; day 12, YM10 1%, MG200 1%, Competitor product 1.25%) of the same compound?
A: 1.00E+00 CFU/g

Q: What about the “Cell counts on YGC-agar (yeast growth)” value ([1]; day 19, YM10 1%, MG200 1%, Competitor product 1.25%) of the same compound?
A: 1.00E+00 CFU/g

Q: What about the “Cell counts on YGC-agar (yeast growth)” value ([1]; day 26, YM10 1%, MG200 1%, Competitor product 1.25%) of the same compound?
A: 1.00E+00 CFU/g

Q: And the “Cell counts on YGC-agar (yeast growth)” value ([1]; day 41, YM10 1%, MG200 1%, Competitor product 1.25%)?
A: 1.00E+00 CFU/g

Q: What about the “Cell counts on YGC-agar (yeast growth)” value ([1]; day 49) of the same compound?
A: 1.00E+00 CFU/g

Q: And the “Cell counts on YGC-agar (yeast growth)” value ([1]; day 55)?
A: 1.00E+00 CFU/g

Q: What about the “Cell counts on YGC-agar (yeast growth)” value ([1]; day 68) of the same compound?
A: 1.00E+00 CFU/g

Q: What about the “Cell counts on YGC-agar (yeast growth)” value ([1]; day 82) of the same compound?
A: 1.00E+00 CFU/g

Q: And the “Cell counts on YGC-agar (yeast growth)” value ([1]; day 104)?
A: 1.00E+00 CFU/g

Q: What about the “Cell counts on YGC-agar (yeast growth)” value ([1]; day 117) of the same compound?
A: 1.00E+00 CFU/g

Q: What about the “Cell counts on YGC-agar (yeast growth)” value ([1]; day 131) of the same compound?
A: 2.50E+01 CFU/g

Q: What about the “Cell counts on YGC-agar (yeast growth)” value ([2]; day 0) of the same compound?
A: 4.75E+02 CFU/g

Q: And the “Cell counts on YGC-agar (yeast growth)” value ([2]; day 2)?
A: 2.50E+02 CFU/g

Q: And the “Cell counts on YGC-agar (yeast growth)” value ([2]; day 5)?
A: 1.00E+02 CFU/g

Q: And the “Cell counts on YGC-agar (yeast growth)” value ([2]; day 7)?
A: 6.80E+01 CFU/g

Q: And the “Cell counts on YGC-agar (yeast growth)” value ([2]; day 14)?
A: 4.80E+01 CFU/g

Q: What about the “Cell counts on YGC-agar (yeast growth)” value ([2]; day 28) of the same compound?
A: 1.45E+02 CFU/g

Q: What about the “Cell counts on YGC-agar (yeast growth)” value ([2]; day 41) of the same compound?
A: 3.30E+01 CFU/g

Q: And the “Cell counts on YGC-agar (yeast growth)” value ([2]; day 55)?
A: 3.20E+01 CFU/g

Q: And the “Cell counts on YGC-agar (yeast growth)” value ([2]; day 93)?
A: 3.30E+01 CFU/g

Q: And the “time after which no more colonies were detected on MRS-agar” value ([3]; Salsa sauce, potassium sorbate 0.1%)?
A: 42 days

Q: And the “Cell counts on MRS-agar (native Lactic acid bacteria)” value (from here on “Cell counts on MRS-agar”) ([3]; day 0)?
A: 4.75E+02

Q: What about the “Cell counts on MRS-agar” value ([3]; day 2) of the same compound?
A: 1.50E+03

Q: What about the “Cell counts on MRS-agar” value ([3]; day 5) of the same compound?
A: 1.40E+02

Q: And the “Cell counts on MRS-agar” value ([3]; day 7)?
A: 1.30E+03

Q: What about the “Cell counts on MRS-agar” value ([3]; day 14) of the same compound?
A: 5.38E+02

Q: What about the “Cell counts on MRS-agar” value ([3]; day 28) of the same compound?
A: 4.30E+01

Q: What about the “Cell counts on MRS-agar” value ([3]; day 41) of the same compound?
A: <1.00E+01

Q: And the “Cell counts on MRS-agar” value ([3]; day 55)?
A: <1.00E+01

Q: And the “Cell counts on MRS-agar” value ([3]; day 93)?
A: <1.00E+01

Q: And the “pH development of the Ranch dressing batch” value (from here on “pH development”) ([4]; day 0)?
A: 4.02

Q: What about the “pH development” value ([4]; day 3) of the same compound?
A: 4.00

Q: What about the “pH development” value ([4]; day 7) of the same compound?
A: 4.02

Q: And the “pH development” value ([4]; day 14)?
A: 4.00

Q: And the “pH development” value ([4]; day 28)?
A: 3.94

Q: What about the “pH development” value ([4]; day 42) of the same compound?
A: 3.96

Q: What about the “pH development” value ([4]; day 56) of the same compound?
A: 3.96

Q: And the “pH development” value ([4]; day 64)?
A: 3.95

Q: What about the “pH development” value ([4]; day 90) of the same compound?
A: 3.96

Q: What about the “pH development” value ([4]; day 157) of the same compound?
A: 3.92

Q: And the “pH development” value ([4]; day 198)?
A: 3.94
